From patent US10221163B2 (priority 2015, dated 2019)
Like-named read-outs stand apart in the source and are kept apart here.

Legend:
VIM-1 = VIM-1 (Pseudomonas aeruginosa (strain ATCC 15692 / DSM 22644 / CIP 104116 / JCM 14847 / LMG 12228 / 1C / PRS 101 / PAO1), UniProt A0A0F7KYQ8); assay: biochemical; conditions: CCF2-FA substrate, 30 pM enzyme, 2 hours at 25° C.
Outline: (§1)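 Class B activity is measured in the presence of compound by fluorescence with CCF2-FA after a 2-hour incubation at 25° C. IC50 is taken from a 4-parameter fit of semi-logarithmic dose-response data.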

IMP-1 = IMP-1 (Serratia marcescens, UniProt P52699); assay: biochemical; type: biochemical; conditions: fluorescence assay, CCF2-FA substrate, 2 pM enzyme, 2 hours at 25° C.; read-out: IMP-1 IC50
Outline: as §1

NDM-1 = NDM-1 (Klebsiella pneumoniae, UniProt C7C422); assay: biochemical; type: biochemical; conditions: fluorescence assay, CCF2-FA substrate, 1 pM enzyme, 2 hours at 25° C.; read-out: NDM-1 IC50
Outline: as §1

[1] = test system: Pseudomonas aeruginosa efflux− (MB9799), IMP-1; type: cell-based; conditions: C, D serine β-lactamase inhibitor closely related to relebactam; for Concentration of metallo-β-lactamase inhibitor which restores susceptibility of efflux − (MB9799) strain to imipenem: imipenem at 2 μg/mL, in the presence of a class A; for P. aeruginosa expressing IMP-1, efflux − (MB9799) MITC95: concentration restoring susceptibility to imipenem at 2 μg/mL in the presence of a class A
Outline: (§2)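 Microbroth MIC tests in PAO1-background strains with fixed imipenem and/or ceftazidime, usually at the CLSI breakpoint, plus fixed class A/C β-lactamase inhibitor against AmpC. MBL inhibitor titrated; concentration restoring susceptibility recorded and compared as fold difference between efflux+ MB9798 and efflux− MB9799.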

[2] = test system: Klebsiella pneumoniae expressing VIM-1 (IHMA599644); type: cell-based; conditions: for Klebsiella pneumoniae MITC95: VIM-1 strain IHMA599644, with imipenem 1 μg/ml, 95% inhibition of growth; for Klebsiella pneumoniae expressing VIM-1 (IHMA599644) MITC95: with imipenem 1 μg/ml, 95% inhibition of bacterial growth
Outline: (§3)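 Growth by absorbance after 22–24 h at 35°C defined the read-out, with imipenem fixed at 1 μg/ml alongside compound. Inocula came from overnight blood-agar colonies at 35°C, resuspended in saline and diluted 1:100 in 1.1×CAMHB.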

[3] = test system: Serratia marcescens expressing IMP-1 (CL5741); type: cell-based; conditions: for Serratia marcescens MITC95: IMP-1 strain CL5741, with imipenem 1 μg/ml, 95% inhibition of growth; for Serratia marcescens expressing IMP-1 (CL5741) MITC95: with imipenem 1 μg/ml, 95% inhibition of bacterial growth
Outline: as §3

[4] = test system: Escherichia coli expressing NDM-1 (CLB30005, CLB30016); type: cell-based; conditions: with imipenem 1 μg/ml; for Escherichia coli MITC95: NDM-1 strain, 95% inhibition of growth; for Escherichia coli expressing NDM-1 (CLB30016) MITC95: 95% inhibition of bacterial growth
Outline: as §3

[5] = test system: Pseudomonas aeruginosa MB9798 vs MB9799
Outline: as §2

[6] = test system: Pseudomonas aeruginosa efflux+ (MB9798), IMP-1; type: cell-based; design: Concentration of metallo-β-lactamase inhibitor which restores susceptibility of efflux + (MB9798) strain to imipenem: unit not given here; conditions: C, D serine β-lactamase inhibitor closely related to relebactam; for Concentration of metallo-β-lactamase inhibitor which restores susceptibility of efflux + (MB9798) strain to imipenem: imipenem at 2 μg/mL, in the presence of a class A; for P. aeruginosa expressing IMP-1, efflux + (MB9798) MITC95: concentration restoring susceptibility to imipenem at 2 μg/mL in the presence of a class A
Outline: as §2

[7] = fluorescence assay, read-out: VIM-1 IC50
[8] = fold difference between efflux+ (MB9798) and efflux− (MB9799) strains, imipenem at 2 μg/mL
[9] = ratio MITC95 PA_9798/MITC95 PA_9799

IMP-1, sequence (P52699 whole entry, looked up, species assumed): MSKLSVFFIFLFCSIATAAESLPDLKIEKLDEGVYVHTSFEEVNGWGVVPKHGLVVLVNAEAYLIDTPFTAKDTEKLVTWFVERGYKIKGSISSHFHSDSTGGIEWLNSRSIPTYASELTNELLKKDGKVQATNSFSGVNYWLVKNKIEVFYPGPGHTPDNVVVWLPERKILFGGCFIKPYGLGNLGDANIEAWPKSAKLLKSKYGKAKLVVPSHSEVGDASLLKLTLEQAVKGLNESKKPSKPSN
NDM-1, sequence (C7C422 whole entry, looked up, species assumed): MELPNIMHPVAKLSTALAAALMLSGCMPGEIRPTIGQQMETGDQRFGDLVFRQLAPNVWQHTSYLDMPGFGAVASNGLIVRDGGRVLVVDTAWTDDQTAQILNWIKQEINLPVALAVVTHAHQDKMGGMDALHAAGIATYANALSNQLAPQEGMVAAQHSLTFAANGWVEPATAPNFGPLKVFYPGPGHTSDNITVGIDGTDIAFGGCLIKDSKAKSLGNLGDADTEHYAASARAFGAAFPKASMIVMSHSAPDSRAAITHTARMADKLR

Structure (SMILES) | IC50 (VIM-1; [7]) | IC50 (IMP-1) | IC50 (NDM-1) | Concentration of metallo-β-lactamase inhibitor which restores susceptibility of efflux − (MB9799) strain to imipenem [1] | Klebsiella pneumoniae MITC95 [2] | Serratia marcescens MITC95 [3] | Escherichia coli MITC95 [4] | Efflux ratio [5, 8] | Concentration of metallo-β-lactamase inhibitor which restores susceptibility of efflux + (MB9798) strain to imipenem [6] | P. aeruginosa expressing IMP-1, efflux − (MB9799) MITC95 [1] | Klebsiella pneumoniae expressing VIM-1 (IHMA599644) MITC95 [2] | Serratia marcescens expressing IMP-1 (CL5741) MITC95 [3] | Escherichia coli expressing NDM-1 (CLB30016) MITC95 [4] | Efflux ratio [5, 9] | P. aeruginosa expressing IMP-1, efflux + (MB9798) MITC95 [6] | IC50 (VIM-1; VIM-1 IC50, fluorescence assay)
NC[C@H](CO)NS(=O)(=O)c1ccc(-c2cccc3nc(N)[nH]c23)c(-c2nn[nH]n2)c1S(N)(=O)=O [Example 427] | 0.547 nM | 2.61 nM | 0.221 nM | 0.7813 | 1.563 µM | 0.7813 µM | 0.3906 µM | 1.00 | 0.7813 | – | – | – | – | – | – | –
Nc1nc2c(-c3ccc(S(=O)(=O)NCCO)c(S(N)(=O)=O)c3-c3nn[nH]n3)cccc2s1 [Example 144, 4-(2-aminobenzo[d]thiazol-4-yl)-N1-(2-hydroxyethyl)-3-(2H-tetrazol-5-yl)benzene-1,2-disulfonamide] | 0.162 nM | 0.288 nM | 0.0898 nM | – | – | – | – | – | – | 3.125 µM | 12.5 µM | 3.125 µM | 12.5 µM | 1.00 | 3.125 µM | –
NC(=O)c1csc(Nc2cccc(-c3ccc(S(=O)(=O)N[C@@H]4CCNC4)c(S(N)(=O)=O)c3-c3nn[nH]n3)c2)n1 [Example 471, (R)-2-((4′-(N-(pyrrolidin-3-yl)sulfamoyl)-3′-sulfamoyl-2′-(2H-tetrazol-5-yl)-[1,1′-biphenyl]-3-yl)amino)thiazole-4-carboxamide] | 0.0734 nM | 0.111 nM | 0.0303 nM | 0.7813 | 3.125 µM | 1.563 µM | 1.563 µM | 4.00 | 3.125 | – | – | – | – | – | – | –
CN(C)CCCN(C)S(=O)(=O)c1ccc(-c2cccc3sc(N)nc23)c(-c2nnn[nH]2)c1S(N)(=O)=O [Example 52, 4-(2-amino-1,3-benzothiazol-4-yl)-N1-[3-(dimethylamino)propyl]-N~1~-methyl-3-(1H-tetrazol-5-yl)benzene-1,2-disulfonamide] | 25.3 nM | 5.94 nM | 15.3 nM | – | – | – | – | – | – | 3.125 µM | 50 µM | 3.125 µM | 12.5 µM | 2.00 | 6.25 µM | –
NC[C@H](N)CNS(=O)(=O)c1ccc(-c2cccc3ccc(N)nc23)c(-c2nn[nH]n2)c1S(N)(=O)=O [Example 371, (S)-4-(2-aminoquinolin-8-yl)-N1-(2,3-diaminopropyl)-3-(2H-tetrazol-5-yl)benzene-1,2-disulfonamide] | – | 0.289 nM | 0.0807 nM | – | 3.125 µM | 3.125 µM | 0.7813 µM | – | – | 1.563 µM | – | – | – | 1.00 | 1.563 µM | 0.188 nM
NCC(F)(F)CNS(=O)(=O)c1ccc(-c2cccc3sc(N)nc23)c(-c2nnn[nH]2)c1S(N)(=O)=O [Example 47, 4-(2-amino-1,3-benzothiazol-4-yl)-N1-(3-amino-2,2-difluoropropyl)-3-(1H-tetrazol-5-yl)benzene-1,2-disulfonamide] | 0.304 nM | 0.484 nM | 0.0658 nM | – | – | – | – | – | – | 3.125 µM | 12.5 µM | 3.125 µM | 6.25 µM | 1.00 | 3.125 µM | –
NCc1nc2c(-c3ccc(S(=O)(=O)N[C@@H](CN)CO)c(S(N)(=O)=O)c3-c3nn[nH]n3)cccc2s1 [Example 381, (S)—N1-(1-amino-3-hydroxypropan-2-yl)-4-(2-(aminomethyl)benzo[d]thiazol-4-yl)-3-(2H-tetrazol-5-yl)benzene-1,2-disulfonamide] | – | 0.241 nM | 0.0602 nM | – | 2.344 µM | 1.172 µM | 0.7813 µM | – | – | 0.7813 µM | – | – | – | 1.50 | 1.172 µM | 0.117 nM
CC(N)CNS(=O)(=O)c1ccc(-c2cccc3sc(N)nc23)c(-c2nnn[nH]2)c1S(N)(=O)=O.O=C(O)C(F)(F)F (stereo not drawn) [Example 109, 1-(4-(2-aminobenzo[d]thiazol-4-yl)-2-sulfamoyl-3-(1H-tetrazol-5-yl)phenylsulfonamido)propan-2-aminium 2,2,2-trifluoroacetate] | – | 0.44 nM | 0.0821 nM | – | – | – | – | – | – | 1.563 µM | 3.125 µM | 1.563 µM | 1.563 µM | 0.50 | 0.7813 µM | 0.322 nM
Nc1nc2c(-c3ccc(S(=O)(=O)NC[C@@]4(N)CCNC4)c(S(N)(=O)=O)c3-c3nn[nH]n3)cccc2s1 [Example 367, (R)-4-(2-aminobenzo[d]thiazol-4-yl)-N1-((3-aminopyrrolidin-3-yl)methyl)-3-(2H-tetrazol-5-yl)benzene-1,2-disulfonamide] | – | 0.0766 nM | 0.0193 nM | – | 3.125 µM | 1.563 µM | 1.563 µM | – | – | 1.563 µM | – | – | – | 0.50 | 0.7813 µM | 0.0975 nM
N[C@H](CO)CNS(=O)(=O)c1ccc(-c2cccc3[nH]cnc23)c(-c2nn[nH]n2)c1S(N)(=O)=O [Example 296, (S)—N^1-(2-amino-3-hydroxypropyl)-4-(1H-benzo[d]imidazol-4-yl)-3-(2H-tetrazol-5-yl)benzene-1,2-disulfonamide] | 0.184 nM | 0.198 nM | 0.0409 nM | – | 3.125 µM | 1.563 µM | 1.563 µM | – | – | 0.7813 µM | – | – | – | 1.00 | 0.7813 µM | –
